{
  "source": "paper doi:10.64898/2025.12.09.693172",
  "about": "“Agonism of mosquito and human transient receptor potential ankyrin 1 (TRPA1) channels by the natural drimane sesquiterpene cinnamodial” (bioRxiv, 2025)",
  "key": {"[1]": {"target": "T1, HsTRPA1 (Homo sapiens, UniProt O75762)", "T1 construct": "gene TRPA1; cDNA construct from Saito and Tominaga, cRNA injected into Xenopus laevis oocytes; UniProt id printed for the modelled HsTRPA1 (residues 401-1119)", "T1 sequence (O75762 whole entry, the tested form may be a part)": "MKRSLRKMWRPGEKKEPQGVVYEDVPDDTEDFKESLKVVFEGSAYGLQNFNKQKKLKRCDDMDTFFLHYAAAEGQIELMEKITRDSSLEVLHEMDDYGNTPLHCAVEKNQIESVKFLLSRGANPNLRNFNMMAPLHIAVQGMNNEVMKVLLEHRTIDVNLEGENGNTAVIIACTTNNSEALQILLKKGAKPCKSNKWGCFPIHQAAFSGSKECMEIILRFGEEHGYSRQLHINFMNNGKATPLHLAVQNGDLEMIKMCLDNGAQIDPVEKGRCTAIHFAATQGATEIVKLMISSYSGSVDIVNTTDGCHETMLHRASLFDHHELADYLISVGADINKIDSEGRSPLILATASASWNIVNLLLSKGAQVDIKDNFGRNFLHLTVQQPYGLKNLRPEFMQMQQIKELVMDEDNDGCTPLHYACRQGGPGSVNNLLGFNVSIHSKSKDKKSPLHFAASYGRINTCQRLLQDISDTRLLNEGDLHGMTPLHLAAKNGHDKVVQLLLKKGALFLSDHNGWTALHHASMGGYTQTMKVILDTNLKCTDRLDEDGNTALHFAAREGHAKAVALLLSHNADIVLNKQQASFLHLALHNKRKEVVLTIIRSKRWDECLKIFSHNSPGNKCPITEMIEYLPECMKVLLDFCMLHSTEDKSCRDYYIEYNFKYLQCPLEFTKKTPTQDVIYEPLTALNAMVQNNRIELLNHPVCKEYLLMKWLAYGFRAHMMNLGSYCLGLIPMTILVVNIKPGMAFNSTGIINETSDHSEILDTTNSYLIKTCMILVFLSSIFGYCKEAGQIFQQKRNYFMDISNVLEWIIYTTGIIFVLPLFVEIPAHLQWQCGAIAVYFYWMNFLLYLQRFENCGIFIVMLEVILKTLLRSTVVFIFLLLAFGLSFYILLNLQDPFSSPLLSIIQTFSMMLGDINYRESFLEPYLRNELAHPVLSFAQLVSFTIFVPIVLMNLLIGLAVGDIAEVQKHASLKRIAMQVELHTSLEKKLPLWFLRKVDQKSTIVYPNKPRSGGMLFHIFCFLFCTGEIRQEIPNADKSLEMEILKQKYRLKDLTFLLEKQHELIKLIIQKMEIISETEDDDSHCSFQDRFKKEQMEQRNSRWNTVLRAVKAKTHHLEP", "experiment": "two-electrode voltage clamp, Xenopus oocytes", "type": "cell-based"}, "[2]": {"target": "T1, HsTRPA1", "experiment": "two-electrode voltage clamp, Xenopus oocytes", "type": "cell-based", "settings": "agonist, ND96 pH 7.5"}},
  "data": [
    {"smiles": "COCCCN(C(=O)CCl)c1nc(-c2ccc(OC)cc2)cs1", "note": "[JT010]", "values": [
      {"measurement": "EC50", "setting": "[1]", "value": 800, "unit": "nM"}
    ]},
    {"smiles": "CC(=O)O[C@@H]1C=C(C=O)[C@](O)(C=O)[C@@]2(C)CCCC(C)(C)[C@H]12", "note": "[CDIAL]", "values": [
      {"measurement": "EC50", "setting": "[1]", "value": 2250, "unit": "nM"}
    ]},
    {"smiles": "CC1=COC(=O)C2C(C)CCC12", "note": "(stereo not drawn) [nepetalactone]", "values": [
      {"measurement": "% by which ΔIm at 1000 μM is lower than that of 10 μM CDIAL", "setting": "[2]", "value": "98.8 ± 0.46", "unit": "%"}
    ]}
  ]
}
